Measurements taken from patent US11814444B2, “Cyclic polypeptides for PCSK9 inhibition” (Ra Pharmaceuticals, Inc., priority 2018, dated 2023).
pIC50: −log10 of the molar value. Numbered stars: 1 amine (or outer) side, 2 acyl side, 3 side chain; on linkers, the order of the positions; unused ones are H or OH. Bridge positions count the residues as written; N and C are the ends. Square brackets hold non-standard residues; d marks the D form. Peptide text beside a SMILES is read from it. Trp(7-aza) = N[C@@H](Cc1c[nH]c2ncccc12)C(=O)O; Ala(2-furyl) = N[C@@H](Cc1ccco1)C(=O)O; 1Nal = N[C@@H](Cc1cccc2ccccc12)C(=O)O; mXylylene = c1cc(C[*:1])cc(C[*:2])c1; Aad = N[C@@H](CCCC(=O)O)C(=O)O; Tle = CC(C)(C)[C@H](N)C(=O)O; αMeV = CC(C)[C@](C)(N)C(=O)O; S5 = C=CCCC[C@](C)(N)C(=O)O; Iva = CC[C@](C)(N)C(=O)O; Nva = CCC[C@H](N)C(=O)O; Aib = CC(C)(N)C(=O)O; Mpa = O=C(O)CCS

Biological target: human PCSK9 / human LDLR EGFa domain interaction (Homo sapiens, UniProt Q8NBP7)
Sequence (Q8NBP7 153-692): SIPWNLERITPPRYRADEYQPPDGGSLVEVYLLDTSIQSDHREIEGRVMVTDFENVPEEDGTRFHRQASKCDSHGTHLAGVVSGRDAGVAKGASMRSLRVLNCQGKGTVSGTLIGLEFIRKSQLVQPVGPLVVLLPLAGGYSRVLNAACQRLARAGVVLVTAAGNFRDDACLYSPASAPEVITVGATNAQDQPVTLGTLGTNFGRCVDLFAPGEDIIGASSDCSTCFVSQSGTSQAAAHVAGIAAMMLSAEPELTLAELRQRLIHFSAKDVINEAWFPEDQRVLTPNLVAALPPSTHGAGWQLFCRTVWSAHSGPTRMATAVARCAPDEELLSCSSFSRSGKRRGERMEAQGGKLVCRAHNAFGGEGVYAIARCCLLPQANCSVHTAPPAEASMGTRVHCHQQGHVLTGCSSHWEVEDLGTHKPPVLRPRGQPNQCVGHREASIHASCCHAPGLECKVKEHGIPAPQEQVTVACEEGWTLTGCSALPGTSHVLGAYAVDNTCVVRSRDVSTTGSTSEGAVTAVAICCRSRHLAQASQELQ
Sequence (Q8NBP7 31-152 partner limits assumed): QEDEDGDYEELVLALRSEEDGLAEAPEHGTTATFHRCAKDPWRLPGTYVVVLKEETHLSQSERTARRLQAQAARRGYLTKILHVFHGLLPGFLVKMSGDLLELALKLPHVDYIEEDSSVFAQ
Assay: TR-FRET assay of inhibition of the PCSK9-LDLR protein-protein interaction
Assay type: binding
Conditions: 20 nM avitag-biotinylated human PCSK9, 20 nM his-tagged human LDLR EGFa domain, 2 hours, room temperature
Procedure: A time-resolved fluorescence resonance energy (TR-FRET) assay was used to measure inhibition of the PCSK9-LDLR protein-protein interaction. Briefly, 20 nM avitag-biotinylated human PCSK9 was incubated with 20 nM his-tagged human LDLR EGFa domain in the presence of 5 nM LANCE Ulight Streptavidin (Perkin Elmer) and 5 nM europium-Anti-6×His (Perkin Elmer) for 2 hours covered at room temperature in buffer containing 50 mM HEPES, 150 mM NaCl, 5 mM CaCl2), 0.01% BSA and 0.01% Surfactant P20. Compounds were tested in dose-response and concentrations giving half-maximal inhibition calculated using a 4-parameter fit equation.

Row | SMILES | pIC50
1 | CCC[C@@H]1NC(=O)[C@H]([C@@H](C)O)NC(=O)[C@@H]2CCCN2C(=O)[C@H](Cc2ccc(O)cc2)NC(=O)[C@H](C(C)(C)C)NC(=O)[C@@H](NC(C)=O)CCCCNC(=O)CCC[C@@H](C(N)=O)NC(=O)[C@H]([C@@H](C)O)NC(=O)[C@](C)(C(C)C)NC(=O)[C@H](Cc2ccc(O)cc2)NC(=O)[C@H](C)NC1=O [Compound 057] (Ac-K[Tle]YPT[Nva]AY[αMeV]T[Aad]-NH2; lactam 1-11) | 4.68 to 6.00
2 | CCC[C@@H]1NC(=O)[C@H](Cc2c[nH]c3ncccc23)NC(=O)[C@H]([C@@H](C)O)NC(=O)[C@@H]2CCCN2C(=O)[C@H](Cc2ccc(O)cc2)NC(=O)[C@H](C(C)(C)C)NC(=O)[C@@H](NC(C)=O)CCCC(=O)NCCCC[C@H](C(N)=O)NC(=O)[C@H]([C@@H](C)O)NC(=O)[C@](C)(C(C)C)NC(=O)[C@H](Cc2ccc(O)cc2)NC(=O)[C@H](C)NC1=O [Compound 072] (Ac-[Aad][Tle]YPT[Trp(7-aza)][Nva]AY[αMeV]T[dK]-NH2; lactam 1-12) | 4.68 to 6.00
3 | CCC[C@@H]1NC(=O)[C@H](Cc2c[nH]c3ncccc23)NC(=O)[C@H]([C@@H](C)O)NC(=O)[C@H](Cc2ccco2)NC(=O)[C@H](Cc2ccc(O)cc2)NC(=O)[C@H](C(C)(C)C)NC(=O)CCSCc2cccc(c2)CSC[C@@H](C(N)=O)NC(=O)[C@H]([C@@H](C)O)NC(=O)[C@H](CCC)NC(=O)[C@H](Cc2ccc(O)cc2)NC(=O)[C@H](CCC(=O)O)NC1=O [Compound 117] ([Mpa][Tle]Y[Ala(2-furyl)]T[Trp(7-aza)][Nva]EY[Nva]TC-NH2; linker 1-12 via mXylylene) | 4.68 to 6.00

Continued, values first:

Row | pIC50 | SMILES
4 | 6.00 to 7.00 | C=CCCC[C@]1(C)NC(=O)[C@H](Cc2cccc3ccccc23)NC(=O)[C@H]([C@@H](C)O)NC(=O)[C@@H]2CCCN2C(=O)[C@H](Cc2ccc(O)cc2)NC(=O)[C@H](C(C)(C)C)NC(=O)[C@@H](NC(C)=O)CCCC(=O)NCCCC[C@@H](C(N)=O)NC(=O)[C@](C)(CCCC=C)NC(=O)[C@H](CCC)NC(=O)[C@H](Cc2ccc(O)cc2)NC(=O)[C@H](C)NC1=O [Compound 044] (Ac-[Aad][Tle]YPT[1Nal][S5]AY[Nva][S5]K-NH2; lactam 1-12)
5 | 6.00 to 7.00 | CCC[C@@H]1NC(=O)[C@H](Cc2ccc(O)cc2)NC(=O)[C@H](C)NC(=O)C(C)(C)NC(=O)[C@H](Cc2c[nH]c3ncccc23)NC(=O)[C@H]([C@@H](C)O)NC(=O)[C@@H]2CCCN2C(=O)[C@H](Cc2ccc(O)cc2)NC(=O)[C@H](C(C)(C)C)NC(=O)[C@@H](NC(C)=O)CCCC(=O)NCCCC[C@@H](C(N)=O)NC(=O)C(C)(C)NC1=O [Compound 049] (Ac-[Aad][Tle]YPT[Trp(7-aza)][Aib]AY[Nva][Aib]K-NH2; lactam 1-12)
6 | 4.68 to 6.00 | C=CCCC[C@]1(C)NC(=O)[C@H](CCC)NC(=O)[C@H](Cc2ccc(O)cc2)NC(=O)[C@H](C)NC(=O)[C@](C)(CC)NC(=O)[C@H](Cc2c[nH]c3ncccc23)NC(=O)[C@H]([C@@H](C)O)NC(=O)[C@@H]2CCCN2C(=O)[C@H](Cc2ccc(O)cc2)NC(=O)[C@H](C(C)(C)C)NC(=O)[C@@H](NC(C)=O)CCCC(=O)NCCCC[C@@H](C(N)=O)NC1=O [Compound 050] (Ac-[Aad][Tle]YPT[Trp(7-aza)][Iva]AY[Nva][S5]K-NH2; lactam 1-12)
7 | 4.68 to 6.00 | CCC[C@@H]1NC(=O)[C@H](Cc2ccc(O)cc2)NC(=O)[C@H](C)NC(=O)[C@@](C)(NC(=O)[C@H](Cc2cccc3ccccc23)NC(=O)[C@@H](NC(=O)[C@@H]2CCCN2C(=O)[C@H](Cc2ccc(O)cc2)NC(=O)[C@@H](NC(C)=O)C(C)(C)C)[C@@H](C)O)CCC/C=C/CCC[C@@](C)(C(N)=O)NC1=O [Compound 078] (Ac-[Tle]YPT[1Nal][S5]AY[Nva][S5]-NH2; staple (E) 6-10)
